In patent publication US9062284B2, “Uses and detection of herbicide resistance genes for resistance to aryloxyalkanoate herbicides” (Dow ArgoSciences LLC, priority 2007, dated 2015):

Target: T1, AAD-13 (v2) (Sphingobium herbicidovorans, UniProt Q700X4)
T1 construct: His tag (C); made in house; host or cells: E. coli BL-21, pET-26b(+)
Assay: not given
Format: biochemical
Details: substrate 0.5 mM (asterisk); rate as percentage of 2,4-D rate
From the text: In order to test a broad range of substrates, the production of succinate from the breakdown of α-ketoglutarate was detected spectrophotometricly using a protocol based on the method of Luo et. al. (2006) (Anal. Biochem. 353: 69-74). As depicted in FIG. 3, the concomitant breakdown of α-ketoglutarate and the substrate of interest via AAD-13, results in the production of succinate. Succinate is further modified to succinyl-CoA by succinyl-CoA synthetase which consumes ATP and produces ADP. ADP is then consumed by the commonly employed pyruvate kinase/lactate dehydrogenase enzymatic coupling system (Sigma P0294). The resulting conversion of NADH to NAD is monitored spectrophotometrically at 340 nm.
Identification of AAD-13 (v2) substrates in vitro was based on enzymatic activity detected during continuous spectrophotometric monitoring of a 0.2 mL reaction volume in a 96 well microtiter plate. Reaction conditions were as follows: 100 mM MOPS pH 7.0, 0.4 mM NADH, 0.4 mM ATP, 0.4 mM CoA, 1 mM PEP, 10 mM MgCl2, 0.1 mM […] (solubilized in HCl), and 0.1 mM ascorbate, 1 mM α-ketoglutarate and sufficient AAD-13 (v2) to produce an observable rate in the presence of 2,4-D. Coupling enzymes (SCS/PK/LDH) were adjusted by batch to ensure adequate coupling, and potential substrates were generally assayed at 1 mM. Alterations in substrate concentrations were made as needed to adjust for solubility. Reactions were initiated by either the addition of AAD-13 (v2) or potential substrate. The rate of substrate independent conversion of α-ketoglutarate to succinate by AAD was monitored under the above assay conditions and subtracted from the observed reaction rates. […] Additionally, propionate compounds were checked for pyruvate contamination by spectrophotometrically monitoring the consumption of NADH in the presence of compound and PK/LDH.
Reaction rates are reported as a percentage of the 2,4-D reaction rate obtained in the same sample set. […] It should be noted that faster rates can be more difficult to accurately compare depending on the percentage of available substrate consumed. […] As a result, highly efficient substrates will be properly grouped when compared to low efficiency substrates. Within the grouping of highly efficient substrates however, compounds may not be quantitatively separated by a screen using single rates of substrate and AAD.

SMILES	% of 24D activity
O=C(O)COc1ccc(Cl)c2cccnc12 [compound 204558]	Not Detected
O=C(O)c1cc2cc([N+](=O)[O-])ccc2o1 [compound 238166]	Not Detected
O=C(O)COc1ccc(C(=O)c2ccc(Cl)cc2)c(Cl)c1Cl [compound 761310]	Not Detected
O=C(O)c1cc2cc(Cl)cc(Cl)c2o1 [compound 11077344]	Not Detected
O=C(O)c1cc2cc(Cl)ccc2o1 [compound 11077347]	Not Detected

Same assay, conditions: substrate 1 mM; rate as percentage of 2,4-D rate in same sample set; propionate rates divided by two

SMILES	% of 24D activity
O=C(O)COc1ccc(Cl)cc1Cl [2,4-D, 2,4-dichlorophenoxyacetic acid]	100%
Nc1c(Cl)ccc(OCC(=O)O)c1Cl [3-amino 24D]	151%
O=C(O)CCCOc1ccc(Cl)cc1Cl [24DB]	2%
Cc1cc(Cl)ccc1OC(C)C(=O)O (centres unmarked) [Mecoprop]	169%
C[C@@H](Oc1ccc(Oc2nc3ccc(Cl)cc3o2)cc1)C(=O)O [R-fenoxaprop]	2%
C[C@H](Oc1ccc(Cl)cc1Cl)C(=O)O [S-dichlorprop]	233%
CC(Oc1nc(F)c(Cl)c(N)c1Cl)C(=O)O (stereo not drawn) [alpha methyl floroxypyr]	43%
CC(Oc1ccc(C(=O)c2ccc(Cl)cc2)cc1)C(=O)O (centres unmarked) [compound 8563]	64%
CC(Oc1ncc(Cl)cc1Cl)C(=O)O (centres unmarked) [compound 66357]	24%
CC(Oc1ccc(C(=O)c2ccccc2)cc1)C(=O)O (centres unmarked) [compound 66732]	>100%
CC(Oc1ccc(F)cc1Cl)C(=O)O (centres unmarked) [compound 83293]	106%
CC(Oc1nc(F)c(Cl)cc1Cl)C(=O)O (centres unmarked) [compound 91767]	88%
O=C(O)COCc1ccccc1 [compound 93116]	128%
O=C(O)COc1nc(F)c(Cl)cc1Cl [compound 93833]	33%
CC(OCc1ccccc1)C(=O)O (centres unmarked) [compound 118942]	46%
O=C(O)COc1ccc(F)cc1Cl [compound 124988]	44%

SMILES	% of 24D activity
O=C(O)/C=C/c1ccccc1Cl [compound 187507]	10%
CCCC(Oc1cc(Cl)c(Cl)cc1Cl)C(=O)O (centres unmarked) [compound 188495]	19%
CCCCOC(C)C(=O)O (centres unmarked) [compound 191716]	66%
O=C(O)COc1ccc(C(=O)c2ccccc2)cc1 [compound 193908]	56%
O=C(O)c1cc2cc(Br)cc(Br)c2o1 [compound 198167]	Not Detected
O=C(O)COC(c1ccccc1)C(F)(F)F (centres unmarked) [compound 470901]	30%
O=C(O)COCc1ccc(Cl)cc1 [compound 475726]	112%
C=C(C)CCOCC(=O)O [compound 571320]	39%
CC(Oc1nn(-c2ccccc2)c(-c2ccccc2)c1Cl)C(=O)O (centres unmarked) [compound 657338]	5%
CC(Oc1nn(-c2ccccc2)c(-c2ccccc2)c1Br)C(=O)O (centres unmarked) [compound 657339]	5%
CC(Oc1ccc(Cl)c(N)c1Cl)C(=O)O (centres unmarked) [compound 11113675]	113%
O=C(O)COc1cc(N2C(=O)C3=C(CCCC3)C2=O)c(F)cc1Cl [compound 11213586]	2%
O=C(O)/C=C\c1ccccc1Cl [compound 11453845]	13%
CC(Oc1ccc(Oc2ccc(Cl)cc2Cl)cc1)C(=O)O (centres unmarked) [diclofop]	>100%
CC(Oc1ccc(Oc2ccc(C(F)(F)F)cn2)cc1)C(=O)O (centres unmarked) [fluazifiop]	~50%
CC(Oc1ccc(Cl)cc1Cl)C(=O)O (centres unmarked) [r,s dichlorprop, dichlorprop]	195%

System: AAD-13 (v1) transformed T1 Arabidopsis
Assay: Postemergence herbicide response of AAD-13 (v1) T1 Arabidopsis
Format: in vivo, Arabidopsis thaliana
Details: 2,240 g ae/ha 2,4-D
Description: Seven days after planting (DAP) and again 11 DAP, T1 plants (cotyledon and 2-4-lf stage, respectively) were sprayed with a 0.2% solution of Liberty herbicide (200 g ai/L glufosinate, Bayer Crop Sciences, Kansas City, Mo.) at a spray volume of 10 ml/tray (703 L/ha) using a DeVilbiss compressed air spray tip to deliver an effective rate of 280 g ai/ha glufosinate per application. Survivors (plants actively growing) were identified 4-7 days after the final spraying and transplanted individually into 3-inch pots prepared with potting media (Metro Mix 360). Transplanted plants were covered with humidity domes for 3-4 days and placed in a 22° C. growth chamber as before or moved to directly to the greenhouse. Domes were subsequently removed and plants reared in the greenhouse (22±5° C., 50±30% RH, 14 h light:10 dark, minimum 500 μE/m^2s^1 natural+supplemental light) at least 1 day prior to testing for the ability of AAD-13 (v1) to provide phenoxy auxin herbicide resistance.
T1 plants were then randomly assigned to various rates of 2,4-D. For Arabidopsis, 50 g ae/ha 2,4-D is an effective dose to distinguish sensitive plants from ones with meaningful levels of resistance. Elevated rates were also applied to determine relative levels of resistance (280, 560, 1120, or 2240 g ae/ha). Tables 11 and 12 show comparisons drawn to an aryloxyalkanoate herbicide resistance gene (AAD-12 (v1)) previously described in PCT/US2006/042133.
All auxin herbicide applications were made using the DeVilbiss sprayer as described above to apply 703 L/ha spray volume (0.4 ml solution/3-inch pot) or applied by track sprayer in a 187 L/ha spray volume. 2,4-D used was either technical grade (Sigma, St. Louis, Mo.) dissolved in DMSO and diluted in water (<1% DMSO final concentration) or the commercial dimethylamine salt formulation (456 g ae/L, NuFarm, St Joseph, Mo.). Dichlorprop used was commercial grade formulated as potassium salt of R-dichlorprop (600 g ai/L, AH Marks). As herbicide rates increased beyond 800 g ae/ha, the pH of the spray solution became exceedingly acidic, burning the leaves of young, tender Arabidopsis plants and complicating evaluation of the primary effects of the herbicides.
The first Arabidopsis transformations were conducted using AAD-13 (v1) (plant optimized gene). T1 transformants were first selected from the background of untransformed seed using a glufosinate selection scheme. Over 160,000 T1 seed were screened and 238 glufosinate resistant plants were identified (PAT gene), equating to a transformation/selection frequency of 0.15% which lies in the normal range of selection frequency of constructs where PAT+Liberty are used for selection. T1 plants selected above were subsequently transplanted to individual pots and sprayed with various rates of commercial aryloxyalkanoate herbicides. Table 11 compares the response of AAD-13 (v1) and control genes to impart 2,4-D resistance to Arabidopsis T1 transformants. Response is presented in terms of % visual injury 2 WAT. […] An arithmetic mean and standard deviation is presented for each treatment. The range in individual response is also indicated in the last column for each rate and transformation. PAT/Cry1F-transformed Arabidopsis served as an auxin-sensitive transformed control. The AAD-13 (v1) gene imparted herbicide resistance to individual T1 Arabidopsis plants. Within a given treatment, the level of plant response varied greatly and can be attributed to the fact each plant represents an independent transformation event. Of important note, at each 2,4-D rate tested, there were individuals that were unaffected while some were severely affected. […] At high rates the spray solution becomes highly acidic unless buffered therefore some of the injury may be attributed to the acidity of the spray solution. Arabidopsis grown mostly in the growth chamber has a very thin cuticle and severe burning effects can complicate testing at these elevated rates. […]

SMILES	population injury average
O=C(O)COc1ccc(Cl)cc1Cl [2,4-D, 2,4-dichlorophenoxyacetic acid]	about 15%

Target: T2, AAD-13 (Sphingobium herbicidovorans, UniProt Q700X4)
T2 sequence (Q700X4 with tags, fused parts or gaps): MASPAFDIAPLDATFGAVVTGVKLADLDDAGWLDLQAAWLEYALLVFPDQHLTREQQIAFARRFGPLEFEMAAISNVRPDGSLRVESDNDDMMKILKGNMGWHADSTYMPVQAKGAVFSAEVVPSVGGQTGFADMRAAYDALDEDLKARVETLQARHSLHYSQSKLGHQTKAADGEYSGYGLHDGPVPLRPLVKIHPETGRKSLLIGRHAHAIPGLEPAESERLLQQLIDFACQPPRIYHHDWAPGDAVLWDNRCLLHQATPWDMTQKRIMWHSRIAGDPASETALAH
Assay: not given
Details: CNPP as substrate, pH 6.75

SMILES	Km [µM]	kcat [s⁻¹]
CC(Oc1ccc([N+](=O)[O-])cc1Cl)C(=O)O (centres unmarked) [CNPP]	31 ± 5.5	0.27 ± 0.0132

System: AAD-2 (v1) transformed T1 Arabidopsis
Assay: not given
Details: 200 g ae/ha 2,4-D; see PCT/US2005/014737; cited from earlier work

SMILES	overall population injury
O=C(O)COc1ccc(Cl)cc1Cl [2,4-D, 2,4-dichlorophenoxyacetic acid]	about 83%
